From patent publication US20250129027A1 (APOGEE PHARMACEUTICALS, INC., priority 2023, published 2025) come the findings set out here.

One assay deals with human recombinant FAAH (Homo sapiens (Human), UniProt O00519). Description: In vitro inhibition of FAAH activity (fluorescent inhibitor screening kit, AMC arachidonoyl amide). The class given is biochemical. The settings on record: human recombinant FAAH; read-out: Inhibition on FAAH activity (IC50). An outline of the steps: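 Fluorogenic kit assay: AMC arachidonoyl amide is cleaved by human recombinant FAAH, read at 340-360/450-465 nm. Percent inhibition versus non-treated control; IC50 values derived from multiple compound concentrations where tested.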

The next assay concerns the target human recombinant MAGL (Homo sapiens (Human), UniProt Q99685). Description: In vitro inhibition of MAGL activity (inhibitor screening kit, 4-nitrophenylacetate). The class given is biochemical. The conditions noted are these: human recombinant MAGL. An outline of the steps: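 Colorimetric kit assay: recombinant human MAGL hydrolyses 4-nitrophenylacetate to 4-nitrophenol, read by absorbance at 405-412 nm. Inhibition given as percentage of signal in treated versus untreated MAGL control.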

Each structure is given as a SMILES string.

Sequence of human recombinant MAGL (Q99685 whole entry): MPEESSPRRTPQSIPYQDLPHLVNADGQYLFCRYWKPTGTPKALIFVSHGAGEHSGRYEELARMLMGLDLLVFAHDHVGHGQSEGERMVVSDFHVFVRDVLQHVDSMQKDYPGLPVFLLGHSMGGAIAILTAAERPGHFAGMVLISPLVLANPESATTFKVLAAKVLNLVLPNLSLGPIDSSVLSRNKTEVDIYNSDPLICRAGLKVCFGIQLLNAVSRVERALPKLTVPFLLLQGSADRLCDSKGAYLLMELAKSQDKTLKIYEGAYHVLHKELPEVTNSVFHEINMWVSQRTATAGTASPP
Sequence of human recombinant FAAH (O00519 whole entry): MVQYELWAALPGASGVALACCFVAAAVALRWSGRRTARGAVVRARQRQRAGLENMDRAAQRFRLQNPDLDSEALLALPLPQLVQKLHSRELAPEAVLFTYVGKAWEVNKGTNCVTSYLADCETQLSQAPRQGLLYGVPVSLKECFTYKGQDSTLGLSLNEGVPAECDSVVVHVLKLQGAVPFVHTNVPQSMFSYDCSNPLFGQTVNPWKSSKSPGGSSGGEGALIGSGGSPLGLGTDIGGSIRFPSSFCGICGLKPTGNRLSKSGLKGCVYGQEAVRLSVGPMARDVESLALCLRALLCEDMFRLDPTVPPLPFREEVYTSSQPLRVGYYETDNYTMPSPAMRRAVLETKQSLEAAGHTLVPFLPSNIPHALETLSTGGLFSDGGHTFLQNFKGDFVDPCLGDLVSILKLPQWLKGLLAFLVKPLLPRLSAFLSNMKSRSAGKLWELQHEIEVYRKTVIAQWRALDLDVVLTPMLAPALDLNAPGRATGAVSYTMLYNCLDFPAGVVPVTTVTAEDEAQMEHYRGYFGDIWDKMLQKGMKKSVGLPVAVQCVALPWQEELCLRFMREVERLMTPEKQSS

For `O=C(NC1CCCCC1)Oc1cccc(-c2cncc(-c3ccno3)c2)c1` [Example 107, 3-(5-(isoxazol-5-yl)pyridin-3-yl)phenyl cyclohexylcarbamate], the IC50 is 0.01 to 0.1 µM at human recombinant FAAH and over 10 µM at human recombinant MAGL.
The corresponding values for `O=C(NC1CCCCCC1)Oc1cccc(-c2cncc(-c3ccno3)c2)c1` [Example 108, 3-(5-(isoxazol-5-yl)pyridin-3-yl)phenyl cycloheptylcarbamate] are 0.01 to 0.1 µM and over 1 µM.
The corresponding values for `CCCCCCCCNC(=O)Oc1ccc(OC)c(-c2cncc(-c3ccno3)c2)c1` [Example 109, 3-(5-(isoxazol-5-yl)pyridin-3-yl)-4-methoxyphenyl octylcarbamate] are 0.001 to 0.01 µM and about 10 µM.
On the same counts, the results for `COc1ccc(OC(=O)NCC2CCCCC2)cc1-c1cncc(-c2ccno2)c1` [Example 110, 3-(5-(isoxazol-5-yl)pyridin-3-yl)-4-methoxyphenyl (cyclohexylmethyl)carbamate] are 0.01 to 0.1 µM and about 10 µM.
On to `COc1ccc(OC(=O)NCc2ccccc2)cc1-c1cncc(-c2ccno2)c1` [Example 111, 3-(5-(isoxazol-5-yl)pyridin-3-yl)-4-methoxyphenyl benzylcarbamate], for which the results for the IC50 at human recombinant FAAH and on human recombinant MAGL were 0.1 to 1 µM and over 10 µM, respectively.
On the same counts, the results for `COc1ccc(OC(=O)NC2CCCC2)cc1-c1cncc(-c2ccno2)c1` [Example 112, 3-(5-(isoxazol-5-yl)pyridin-3-yl)-4-methoxyphenyl cyclopentylcarbamate] are about 0.1 µM and over 10 µM.
On the same counts, the results for `COc1ccc(OC(=O)NC2CCCCC2)cc1-c1cncc(-c2ccno2)c1` [Example 113, 3-(5-(isoxazol-5-yl)pyridin-3-yl)-4-methoxyphenyl cyclohexylcarbamate] are about 0.1 µM and over 10 µM.
On the same counts, the results for `CCCCCCCCNC(=O)Oc1cccc(-c2cncc(-c3nccs3)c2)c1` [Example 115] are 0.001 to 0.01 µM and about 10 µM.
`O=C(NCC1CCCCC1)Oc1cccc(-c2cncc(-c3nccs3)c2)c1` [Example 116, 3-(5-(thiazol-2-yl)pyridin-3-yl)phenyl (cyclohexylmethyl)carbamate]: the results for the IC50 on human recombinant FAAH and on human recombinant MAGL were 0.01 to 0.1 µM and about 10 µM, respectively.
On the same counts, the results for `O=C(NCc1ccccc1)Oc1cccc(-c2cncc(-c3nccs3)c2)c1` [Example 117, 3-(5-(thiazol-2-yl)pyridin-3-yl)phenyl benzylcarbamate] are 0.1 to 1 µM and over 10 µM.
For the compound `O=C(NC1CCCC1)Oc1cccc(-c2cncc(-c3nccs3)c2)c1` [Example 118, 3-(5-(thiazol-2-yl)pyridin-3-yl)phenyl cyclopentylcarbamate], the IC50 on human recombinant FAAH is about 0.1 µM; on human recombinant MAGL it was over 10 µM.
In the case of `O=C(NC1CCCCC1)Oc1cccc(-c2cncc(-c3nccs3)c2)c1` [Example 119, 3-(5-(thiazol-2-yl)pyridin-3-yl)phenyl cyclohexylcarbamate], the IC50 on human recombinant FAAH is 0.01 to 0.1 µM; at human recombinant MAGL it was over 10 µM.
The corresponding values for `O=C(NC1CCCCCC1)Oc1cccc(-c2cncc(-c3nccs3)c2)c1` [Example 120, 3-(5-(thiazol-2-yl)pyridin-3-yl)phenyl cycloheptylcarbamate] are 0.01 to 0.1 µM and about 10 µM.
The corresponding values for `CCCCCCCCNC(=O)Oc1ccc(OC)c(-c2cncc(-c3nccs3)c2)c1` [Example 121, 4-methoxy-3-(5-(thiazol-2-yl)pyridin-3-yl)phenyl octylcarbamate] are 0.01 to 0.1 µM and about 10 µM.
Consider `COc1ccc(OC(=O)NCC2CCCCC2)cc1-c1cncc(-c2nccs2)c1` [Example 122, 4-methoxy-3-(5-(thiazol-2-yl)pyridin-3-yl)phenyl (cyclohexylmethyl)carbamate], for which the 50% inhibitory concentration (IC50) at human recombinant FAAH was 0.1 to 1 µM; on human recombinant MAGL, about 10 µM.
In the case of `COc1ccc(OC(=O)NCc2ccccc2)cc1-c1cncc(-c2nccs2)c1` [Example 123, 4-methoxy-3-(5-(thiazol-2-yl)pyridin-3-yl)phenyl benzylcarbamate], the values for the IC50 at human recombinant FAAH and on human recombinant MAGL were about 1 µM and over 10 µM, respectively.
As for `COc1ccc(OC(=O)NC2CCCC2)cc1-c1cncc(-c2nccs2)c1` [Example 124, 4-methoxy-3-(5-(thiazol-2-yl)pyridin-3-yl)phenyl cyclopentylcarbamate], the IC50 on human recombinant FAAH is 0.1 to 1 µM; at human recombinant MAGL it was over 10 µM.
The corresponding values for `COc1ccc(OC(=O)NC2CCCCC2)cc1-c1cncc(-c2nccs2)c1` [Example 125, 4-methoxy-3-(5-(thiazol-2-yl)pyridin-3-yl)phenyl cyclohexylcarbamate] are 0.1 to 1 µM and over 10 µM.
On the same counts, the results for `COc1ccc(OC(=O)NC2CCCCCC2)cc1-c1cncc(-c2nccs2)c1` [Example 126, 4-methoxy-3-(5-(thiazol-2-yl)pyridin-3-yl)phenyl cycloheptylcarbamate] are 0.1 to 1 µM and over 10 µM.
On the same counts, the results for `O=C(NCC1CCCCC1)Oc1cccc(-c2cncc(-c3nnco3)c2)c1` [Example 134, 3-(5-(1,3,4-oxadiazol-2-yl)pyridin-3-yl)phenyl (cyclohexylmethyl)carbamate] are 0.01 to 0.02 µM and over 10 µM.
Regarding `O=C(NCc1ccccc1)Oc1cccc(-c2cncc(-c3nnco3)c2)c1` [Example 135, 3-(5-(1,3,4-oxadiazol-2-yl)pyridin-3-yl)phenyl benzylcarbamate], the figures for the IC50 on human recombinant FAAH and on human recombinant MAGL were over 0.1 µM and over 50 µM, respectively.
On the same counts, the results for `O=C(NCCCc1ccccc1)Oc1cccc(-c2cncc(-c3nnco3)c2)c1` [Example 136, 3-(5-(1,3,4-oxadiazol-2-yl)pyridine-3-yl)phenyl (3-phenylpropyl)carbamate] are 0.01 to 0.1 µM and 10 to 50 µM.
As to `O=C(NC1CCCCCC1)Oc1cccc(-c2cncc(-c3nnco3)c2)c1` [Example 137, 3-(5-(1,3,4-oxadiazol-2-yl)pyridin-3-yl)phenyl cycloheptylcarbamate], the IC50 on human recombinant FAAH is 0.01 to 0.02 µM; on human recombinant MAGL, over 10 µM.
For the compound `O=C(NC1CCCC1)Oc1cccc(-c2cncc(-c3nnco3)c2)c1` [Example 138, 3-(5-(1,3,4-oxadiazol-2-yl)pyridin-3-yl)phenyl cyclopentylcarbamate], the results for the IC50 at human recombinant FAAH and on human recombinant MAGL were 0.01 to 0.1 µM and over 50 µM, respectively.
On the same counts, the results for `O=C(NC1CCCCC1)Oc1cccc(-c2cncc(-c3nnco3)c2)c1` [Example 139, 3-(5-(1,3,4-oxadiazol-2-yl)pyridin-3-yl)phenyl cyclohexylcarbamate] are 0.01 to 0.1 µM and over 50 µM.
The corresponding values for `O=C(Nc1cccc2ccccc12)Oc1cccc(-c2cncc(-c3nnco3)c2)c1` [Example 140, 3-(5-(1,3,4-oxadiazol-2-yl)pyridin-3-yl)phenyl naphthalen-1-ylcarbamate] are over 0.1 µM and over 50 µM.
On the same counts, the results for `O=C(Oc1cccc(-c2cncc(-c3nnco3)c2)c1)N1CCCCC1` [Example 141, 3-(5-(1,3,4-oxadiazol-2-yl)pyridin-3-yl)phenyl piperidine-1-carboxylate] are about 1 µM and over 10 µM.
With `CN(C(=O)Oc1cccc(-c2cncc(-c3nnco3)c2)c1)C1CCCCC1` [Example 142, 3-(5-(1,3,4-oxadiazol-2-yl)pyridin-3-yl)phenyl cyclohexyl(methyl)carbamate], the results for the IC50 at human recombinant FAAH and at human recombinant MAGL were 1 to 10 µM and over 10 µM, respectively.
The corresponding values for `CC1CCCCN1C(=O)Oc1cccc(-c2cncc(-c3nnco3)c2)c1` (stereo not drawn) [Example 143, 3-(5-(1,3,4-oxadiazol-2-yl)pyridin-3-yl)phenyl 2-methylpiperidine-1-carboxylate] are about 10 µM and over 10 µM.
The corresponding values for `O=C(Oc1cccc(-c2cncc(-c3nnco3)c2)c1)N1CCCCCC1` [Example 145, 3-(5-(1,3,4-oxadiazol-2-yl)pyridin-3-yl)phenyl azepane-1-carboxylate] are over 1 µM and over 10 µM.
The corresponding values for `O=C(NC1CC2(CCC2)C1)Oc1cccc(-c2cncc(-c3nnco3)c2)c1` [Example 147, 3-(5-(1,3,4-oxadiazol-2-yl)pyridin-3-yl)phenyl spiro[3.3]heptan-2-ylcarbamate] are 0.01 to 0.1 µM and over 10 µM.
As to `O=C(Oc1cccc(-c2cncc(-c3nnco3)c2)c1)N1CC2CC2C1` (stereo not drawn) [Example 148, 3-(5-(1,3,4-oxadiazol-2-yl)pyridin-3-yl)phenyl 3-azabicyclo[3.1.0]hexane-3-carboxylate], the IC50 on human recombinant FAAH is over 1 µM; on human recombinant MAGL, over 10 µM.
On the same counts, the results for `O=C(Oc1cccc(-c2cncc(-c3nnco3)c2)c1)N1CC2CCCC2C1` (stereo not drawn) [Example 149, 3-(5-(1,3,4-oxadiazol-2-yl)pyridin-3-yl)phenyl hexahydrocyclopenta[c]pyrrole-2(1H)-carboxylate] are 0.01 to 0.1 µM and 1 to 10 µM.
On the same counts, the results for `O=C(Oc1cccc(-c2cncc(-c3nnco3)c2)c1)N1C2CCCC1CC2` [Example 150, 3-(5-(1,3,4-oxadiazol-2-yl)pyridin-3-yl)phenyl 8-azabicyclo[3.2.1]octane-8-carboxylate] are over 1 µM and over 10 µM.
Consider `O=C(Oc1cccc(-c2cncc(-c3nnco3)c2)c1)N1CCOCC1` [Example 151, 3-(5-(1,3,4-oxadiazol-2-yl)pyridin-3-yl)phenyl morpholine-4-carboxylate], for which the half-maximal inhibitory concentration (IC50) on human recombinant FAAH is 1 to 10 µM; at human recombinant MAGL, over 10 µM.
The corresponding values for `O=C(Oc1cccc(-c2cncc(-c3nnco3)c2)c1)N1CC2(COC2)C1` [Example 152, 3-(5-(1,3,4-oxadiazol-2-yl)pyridin-3-yl)phenyl 2-oxa-6-azaspiro[3.3]heptane-6-carboxylate] are over 1 µM and over 10 µM.

A word on the IC50: it is the concentration needed to halve the response being measured.
